Values of other authors as cited in patent US8541223B2, “Lactic acid bacteria having action of lowering blood uric acid level” (Meiji Co., Ltd., priority 2007, dated 2013).

Tested on: dietary hyperuricemia model animals
Settings: oral administration of allopurinol; from Food Function Research News vol. 14

For `Oc1ncnc2[nH]ncc12` [allopurinol], the “blood uric acid level in the model animals” value is listed as “significantly suppressed”.
